# Experimental data: patent publication US20240082191A1, “TOPICAL F[…] PHOSPHOLIPID COMPOUNDS” (EGIS GYÓGYSZERGYÁR ZRT., priority 2021, published 2024)
# What was measured:
# [1] = tested on: mice, allodynia; conditions: 2.5% aqueous solution, topical; cited from earlier work
# [2] = Pharmacokinetic studies of pregabalin (blood levels), oral and topical
# [3] = tested on: rats with CCI of sciatic nerve; experiment: Rat model of neuropathy: chronic constriction injury (CCI), paw withdrawal threshold with electronic von Frey device; type: in vivo; conditions: 16.66 mg/kg
# Source text: Furthermore, based on the article Bennett G J, at al (Pain, A peripheral mononeuropathy in rat that produces disorders of pain sensation like those seen in man. 1988 April; 33(1):87-107) we have developed a method for the examination of the compositions of the present invention. Thus, we have examined the compositions according to the present invention also with a different model for measuring the alleviation of the peripheral neuropathic pain also. Namely, we have carried out examinations on rats using Chronic constriction injury (CCI) model. Three weeks following nerve injury rats were assessed for hind paw mechanical withdrawal thresholds. The paw withdrawal threshold (PWT) was determined with an Electronic von Frey device according to the modified up-down method of Dixon (Efficient analysis of experimental observations, Annu Rev Pharmacol Toxicol. 1980; 20:441-62). […] The method and results are shown in example 3 and on FIG. 9. […]
# Briefly, under isoflurane anesthesia small blunt dissection was made into the skin of rat right thigh then three loosely constrictive ligatures were placed around common sciatic nerve (chronic constriction injury CCI). Three weeks following nerve injury rats were assessed for hind paw mechanical withdrawal thresholds. […]
# [4] = tested on: human patient; conditions: 2.5% aqueous solution, topical; cited from earlier work
smiles,measurement,setting,value
CC(C)C[C@H](CN)CC(=O)O [pregabalin],Time of maximum allodynia alleviating effect,[1],1 h
same,Blood levels after oral administration,"[2]; oral, 16.66 mg/kg",relatively high blood levels
same,Amount of pregabalin entering the bloodstream during topical treatment,[2]; topical treatment,very small amounts
same,Reduction of hypersensitivity after oral administration,[3],not able to reduce hypersensitivity
same,Duration of reduction of neuropathic pain in a human patient,[4],6 h
